{"source": "patent US12048687B2", "about": "“Methods of recruiting SDF-producing macrophages” (MedRegen, LLC, priority 2013, dated 2024)", "key": {"[1]": {"system": "lacZ and GFP positive (CD133 lineage) cells in granulation tissues", "experiment": "CD133 lineage tracing in wounded CD133+/C-L mice", "type": "in vivo, mouse (CD133+/C-L)", "conditions": "5 days after wounding, versus saline group 1", "procedure": "To activate CreERT2 expressed from the CD133C-L locus, thereby irreversibly activating GFP expression in CD133+ cells and their progeny, 7 days prior to surgery, adult mT/mG; CD133+/C-L-RosaEGFP mice were injected intraperitoneally with 5.0 mg of tamoxifen (Sigma) dissolved in corn oil (FIG. 6a; Muzumdar et al., 2007). […] Animal were sacrificed by CO2 euthanasia at indicated time points and skin samples including and surrounding the wound area were excised, fixed in 2% paraformaldehyde overnight at 4° C., cryo-protected in 30% sucrose overnight at 4° C. and frozen in OCT (optimum cutting temperature). Frozen sections were obtained using a Leica cryostat and slides were washed in PBS for 5 min. The lacZ analysis was performed with commercial β-Galactosidase staining kit (BioVision Inc. Milpitas, CA) utilizes X-gal as the substrate. […] For GFP microscopy, the skin sections were overlaid with mounting medium with DAPI (Vector Laboratories Inc., Burlingame, CA) and imaged with a confocal fluorescence microscopy (Carl Zeiss Microscopy, Thornwood, NY). To identify structure of lacZ- and GFP-positive tissues and cells, the same section was sequentially stained with DAPI for GFP fluorescence studies, followed by staining with X-gal and hematoxylin and eosin (H&E) (IHC World, Woodstock, MD), according to the manufacturer's instructions. […]"}, "[2]": {"system": "full-thickness skin excisional wounds", "experiment": "in vivo full-thickness excisional wound model, mice", "set-up": "species or system mouse (C57BL/6)", "conditions": "for day of complete wound closure: 5-mm excisions, s.c. Tacrolimus 0.1 mg kg-1 daily, AMD3100 1.0 mg kg-1 every other day, saline day 12", "excerpt": "In vivo excisional wound model. Animals aged 8-12 weeks were anesthetized with Isoflurane. The dorsal skin was shaved and cleaned with betadine and 70% ethanol. In mice, the midline and four points 1 cm on each side of the midline were marked by pen. Two points were at the level of the costal margin and two at the iliac crests designating the sites for excision (FIG. 1A). In rats, the four excisional wounds were placed 1 cm to either side of the midline and 1 cm above and below the midpoint between the costal margin and the iliac […] (FIG. 7a). The sterile disposable biopsy punch (5 mm in diameter; Miltex) was aligned vertically over the center of the mark and punched through the skin and Panniculus carnosus by applying pressure and twisting at the same time. The same procedure was repeated, generating four wounds on each animal (Tomlinson and Ferguson, 2003). The animals were house singly after regaining consciousness. For the mouse splinted wound model, one 5 mm excision was made on each side of the midline on the mid back. The donut-shaped, 0.5 mm-thick silicone splints with a diameter two times that of the wound (Grace Bio-Laboratories, Bend, OR) were then centered, sutured and glued (Krazy Glue®; Elmer's Inc., Columbus, OH) (FIG. 1F; Galiano et al., 2004). […] Each wound site was digitally photographed at the indicated time intervals, and wound areas were determined on photographs using Adobe Photoshop (version 7.0; Adobe Systems, San Jose, CA). Changes in wound areas over time were expressed as the percentage of the initial wound areas (FIG. 1). Example 1: AMD3100 plus low-dose Tacrolimus accelerated wound healing after full-thickness skin excision. Four full-thickness wounds were generated by 5-mm diameter circular excisions on the shaved back of a wild-type C57/B6 mouse (FIG. 1A). Each wound site was photographed digitally at the indicated time intervals, and wound areas were calculated using Adobe Photoshop software. Changes in wound areas over time were expressed as the percentage of the initial wound areas (FIG. 1b). […] All wound evaluations were double blinded."}, "[3]": {"system": "skin excisional wounds in diabetic rats", "experiment": "skin excisional wound healing in STZ-induced diabetic rats", "type": "in vivo, rat (Lewis)", "conditions": "Tacrolimus 0.1 mg/kg daily, AMD3100 1.0 mg/kg every two days s.c., saline day 23", "excerpt": "Diabetic rat model. Streptozotocin (STZ) is an antibiotic that can cause pancreatic beta-cell destruction, so it is widely used experimentally as an agent capable of inducing insulin-dependent diabetes mellitus (IDDM), also known as type 1 diabetes mellitus (T1DM). The most common animal model of human diabetes is streptozotocin (STZ)-induced diabetes in the rat. Streptozotocin (STZ)-induced diabetic rat model used to determine the skin wound healing. All rats (aged at 12-16 weeks) developed diabetes (blood glucose >450 mg/dL) 2 weeks after STZ injection (50 mg/kg, i.p.). The four excisional wounds were placed 1 cm to either side of the midline and 1 cm above and below the midpoint between the costal margin and the iliac crests. The sterile disposable biopsy punch (5 mm in diameter; Miltex) was aligned vertically over the center of the mark and punched through the skin and Panniculus carnosus by applying pressure and twisting at the same time. The same procedure was repeated, generating four wounds on each animal. Treatment and wound measurement. […] Each wound site was digitally photographed at the indicated time intervals, and wound areas were determined on photographs using Adobe Photoshop (version 7.0; Adobe Systems, San Jose, CA). Changes in wound areas over time were expressed as the percentage of the initial wound areas. All wound evaluations were double blinded."}, "[4]": {"system": "c-Kit+, CD34+, CD133+ cells in wound tissue", "experiment": "immunofluorescence staining of wound sections for stem cell markers", "type": "in vivo, mouse", "conditions": "mice, 5 days post-injury", "description": "(§1) Immunofluorescence staining: For the immunofluorescence staining, frozen sections were fixed with acetone (−20° C.) for 10 min and dried for 1 h at room temperature. PBS containing 1% BSA and 5% normal donkey serum was used to block nonspecific background. Sections were incubated for 1.5 h at room temperature with primary antibodies included: rabbit polyclonal antibody specific for CD133 (1:100, ab19898, Abcam, Cambridge, MA), rabbit polyclonal antibody specific for c-Kit (1:100, sc-168, Santa Cruz Biotechnology, Santa Cruz, CA), goat polyclonal antibody specific for CD34 (1:100, AF4117, R&D Systems, Minneapolis, MN), mouse monoclonal antibody specific for SDF-1 (1:100, MAB310, R&D Systems), FITC-conjugated rat monoclonal antibody specific for F4/80 (1:100, 11-4801, eBioscience, San Diego, CA), mouse monoclonal antibody specific for α-SMA (1:100, ab7817, Abcam), rat monoclonal antibody specific for CD31 (1:100, 14-0311, eBioscience) or rabbit polyclonal antibody specific for HGF (1:100, sc-7949, Santa Cruz), or the combinations of two of them for double fluorescence staining. […] Tissue sections were analyzed by confocal microscopy (Carl Zeiss Microscopy, Thornwood, NY)."}, "[5]": {"system": "full-thickness burn wounds", "experiment": "burn wound model in mice", "type": "in vivo, mouse", "conditions": "burned mice; Tacrolimus 0.1 mg/kg daily, AMD3100 1.0 mg/kg every two days s.c.; saline day 26", "description": "Burn wound model in mice. Mice aged […] were anesthetized with 3% isoflurane (Baxter Healthcare Co., Deerfield, IL, USA) using an anesthesia machine, shaved on the dorsum and depilated with Nair cream (Church & Dwight Co., Princeton, NJ, USA). The burn wound was generated as previously reported (Arch Surg 2010; 145: 259-266). Briefly, a custom made 100-g aluminum rod was heated in a 100° C. water bath for 5 min. One burns of 1.2-cm diameter were produced on the dorsum of each mouse. To assure burn uniformity, only the weight of the rod provided pressure to the skin surface. Contact time of 4 s measured with a metronome was chosen to produce a standardized full-thickness burn. The burns were third degree including destruction of the skin, subcutaneous tissue and the Panniculous carnosus. Buprenorphine (0.1 mg/kg) was administrated subcutaneously for analgesia. Treatment and wound measurement. […] Each wound site was digitally photographed at the indicated time intervals, and wound areas were determined on photographs using Adobe Photoshop (version 7.0; Adobe Systems, San Jose, CA). Changes in wound areas over time were expressed as the percentage of the initial wound areas. All wound evaluations were double blinded."}, "[6]": {"system": "cell migration stimulated by CXCL12", "conditions": "cited from earlier work"}, "[7]": {"system": "hair follicles and scar in healed wounds", "experiment": "histology and hair follicle quantification of re-epithelialized wounds, mice", "type": "in vivo, mouse", "conditions": "day 15", "excerpt": "Histology and microscopy. Tissues from wound sites were collected at day 3, 5, 7, 9 and 15 after injury. Quantitative analysis of hair follicles: The number of regenerated hair follicles was quantified in a double-blind fashion. In nonwounded skin, the number of hair follicles in the area from the same location as the wound were counted and compared to experimental groups (FIG. 2A and FIG. 9A; broken lines indicated wound margin). Masson's trichrome (commercial kit from Polysciences, Inc. Warrington, PA) was used to detect collagen fibers (blue color)."}, "[8]": {"system": "splinted skin wounds", "experiment": "excisional wound splinting model, mice", "type": "in vivo, mouse", "conditions": "low-dose regimen, versus saline", "source_text": "In vivo excisional wound model. Animals aged 8-12 weeks were anesthetized with Isoflurane. The dorsal skin was shaved and cleaned with betadine and 70% ethanol. In mice, the midline and four points 1 cm on each side of the midline were marked by pen. Two points were at the level of the costal margin and two at the iliac crests designating the sites for excision (FIG. 1A). […] The sterile disposable biopsy punch (5 mm in diameter; Miltex) was aligned vertically over the center of the mark and punched through the skin and Panniculus carnosus by applying pressure and twisting at the same time. The same procedure was repeated, generating four wounds on each animal (Tomlinson and Ferguson, 2003). The animals were house singly after regaining consciousness. For the mouse splinted wound model, one 5 mm excision was made on each side of the midline on the mid back. The donut-shaped, 0.5 mm-thick silicone splints with a diameter two times that of the wound (Grace Bio-Laboratories, Bend, OR) were then centered, sutured and glued (Krazy Glue®; Elmer's Inc., Columbus, OH) (FIG. 1F; Galiano et al., 2004).\nTo deter this mechanism, we performed the excisional wound splinting model, where a splinting ring is bonded tightly to the skin around the wound (FIG. 1e). The wound therefore heals through granulation and re-epithelialization, a process similar to the healing of most human skin defects."}, "[9]": {"system": "α-smooth muscle actin (SMA) positive myofibroblast cells", "experiment": "immunofluorescence staining for α-SMA", "type": "in vivo, mouse", "conditions": "mice, five days; versus saline group 1", "description": "as §1"}, "[10]": {"system": "SDF-1 and F4/80 positive cells (macrophages) in wound sites", "experiment": "immunofluorescence staining for SDF-1 and F4/80", "type": "in vivo, mouse", "conditions": "mice, 5 days post-injury", "description": "as §1"}, "[11]": {"system": "SDF-1 mRNA", "experiment": "semi-quantitative RT-PCR of granulation tissues, SDF-1", "type": "in vivo, mouse", "conditions": "mice, 5 days post-injury", "description": "Semiquantitative reverse transcription polymerase chain reaction analysis. Skin specimens were kept frozen at −80° C. until homogenized for RNA extraction using the TRIzol Reagent (Invitrogen, Carlsbad, CA, USA). First strand cDNA synthesis was then performed on 5 μg of total RNA using the superscript first-strand synthesis system for reverse transcription polymerase chain reaction (RT-PCR; Invitrogen) according to the manufacturer's instructions. The PCR contained 1 μL of deoxynucleoside triphosphate mix (10 mM each dNTP), 1 μL of 10 μM each primer, 0.4 μL, (5 IU μL−1) of Platinum Taq polymerase (Invitrogen), 1.5 μL of 50 mM MgCl2 and 2 μL […] as template in a 50 μL reaction solution. Thermal cycling was started with one cycle at 94° C. for 4 min. This was followed by 25-35 cycles at 94° C. for 30 s, 59° C. for 30 s, 72° C. for 30 s and 72° C. for final extension for 10 min. PCR products were electrophoresed on 1.2% agarose gels and visualized with GelStar® Stain (Lonza Rockland Inc., Rockland, ME). […] The expression levels of target mRNA were quantified by densitometry and normalized with the corresponding internal control."}}, "note": "“Also recorded” adds a separate entry of the source.", "data": [{"compound": "c1cc(CN2CCCNCCNCCCNCC2)ccc1CN1CCCNCCNCCCNCC1", "note": "[AMD3100, 1,1′-[1,4-phenylenebis(methylene)]bis-1,4,8,11-tetraazacyclo-tetradecane]", "values": [{"measurement": "numbers of lacZ and GFP positive cells in granulation tissues", "setting": "[1]", "result": "significantly higher"}, {"measurement": "day of complete wound closure", "setting": "[2]", "result": 11, "unit": "days"}, {"measurement": "effect of high doses on skin wound healing", "setting": "[2]; Tacrolimus 1.0 mg kg-1 daily, AMD3100 5.0 mg kg-1 every two days, versus saline", "result": "no significant difference; also recorded: failed to demonstrate significant difference"}, {"measurement": "day of complete wound closure", "setting": "[3]", "result": 21, "unit": "days"}, {"measurement": "number of CD133+, c-Kit+ and CD34+ cells in wound tissue sections", "setting": "[4]", "result": "relatively mild recruitment of stem cells"}, {"measurement": "day of complete wound closure", "setting": "[5]", "result": 23, "unit": "days"}, {"measurement": "IC50", "setting": "[6]", "result": 51, "unit": "nM"}, {"measurement": "number of hair follicles in re-epithelialized wound", "setting": "[7]", "result": "few hair follicles"}, {"measurement": "wound repair in splinted wounds", "setting": "[8]", "result": "accelerated"}, {"measurement": "number of α-SMA positive myofibroblast cells in granulation tissues", "setting": "[9]", "result": "increased"}]}, {"compound": "C=CC[C@@H]1/C=C(\\C)C[C@H](C)C[C@H](OC)[C@H]2O[C@@](O)(C(=O)C(=O)N3CCCC[C@H]3C(=O)O[C@H](/C(C)=C/[C@@H]3CC[C@@H](O)[C@H](OC)C3)[C@H](C)[C@@H](O)CC1=O)[C@H](C)C[C@@H]2OC", "note": "[Tacrolimus]", "values": [{"measurement": "number of SDF-1 and F4/80 positive cells in wound sites", "setting": "[10]", "result": "significantly greater"}, {"measurement": "numbers of lacZ and GFP positive cells in granulation tissues", "setting": "[1]", "result": "significantly higher"}, {"measurement": "day of complete wound closure", "setting": "[2]", "result": 11, "unit": "days"}, {"measurement": "day of complete wound closure", "setting": "[3]", "result": 21, "unit": "days"}, {"measurement": "SDF-1 mRNA expression in granulation tissues", "setting": "[11]", "result": "significantly increased"}, {"measurement": "day of complete wound closure", "setting": "[5]", "result": 21, "unit": "days"}, {"measurement": "number of hair follicles in re-epithelialized wound", "setting": "[7]", "result": "few hair follicles"}, {"measurement": "wound repair in splinted wounds", "setting": "[8]", "result": "accelerated"}, {"measurement": "number of α-SMA positive myofibroblast cells in granulation tissues", "setting": "[9]", "result": "increased"}]}]}
